Experimental data as given in patent US7678583B2, “Method of lysis of erythrocytes” (Immunotech, S.A., priority 2000, dated 2010).

Columns and labels:
[1] = Experiment 2: conversion of ammonium carbamate into ammonium carbonate, precipitation in 85% of acetone; assay type: biochemical
erythrocytes = assay: Experiment 3: speed of lysis with carbonic anhydrases from different sources in lysis reagent according to Example 1; assay type: cell-based; conditions: Example 1 reagent, carbonic anhydrase replaced by preparation at 5000 W-A U/l; OD at 700 nm; time to minimum level
Experimental: In a lysis reagent according to Example 1, the component carbonic anhydrase at 50,000 W-A U/I was replaced by preparations of carbonic anhydrase as indicated in the table, each at 5000 W-A U/I. The lysis process was tracked spectrophotometrically (measurement of the OD at 700 nm). The duration of the lysis is determined by the time necessary to achieve a minimum level.

Compound | Speed of lysis at 5000 W-A U/l (erythrocytes) [min] | also measured
N.NC(=O)O [100 mM NH2CO2NH4, ammonium carbamate, reference compound] |  | Duration before complete precipitation in 85% of acetone ([1]; carbonate precipitates and not the carbamate): 240 min
CAI, C-4396: carbonic anhydrase I preparation, Sigma, human | 5.06 | 
CAI, C-5290: carbonic anhydrase I preparation, Sigma, human | 3.24 | 
CAII, C-2522: carbonic anhydrase II preparation, Sigma, bovine | 8.51 | 
carbonic anhydrase |  | catalysis of the conversion carbonate / carbamate+H2O (in words) [1]: also catalyses the conversion carbonate
